As a reminder, the chromatographic logP is a lipophilicity value derived from retention on a column. Read a high chromatographic logP as a more lipophilic compound.

The source of these data is patent publication US20170325459A1, “BICYCLIC COMPOUNDS AS PEST CONTROL AGENTS” (Bayer CropScience Aktiengesellschaft, priority 2014, published 2017).

Series [1] can be described thus: log P by HPLC (OECD Guideline 117), method [b] neutral range pH 7.8. Type of series: physicochemical. The note with it: for chromatographic logP: reversed-phase (RP) C18 HPLC column. The protocol: (§1) The log P values were determined in accordance with OECD Guideline 117 (EC Directive 92/69/EEC) by HPLC (high-performance liquid chromatography) using reversed-phase (RP) columns (C18), by the following methods: [a] The LC-MS determination in the acidic range is carried out at pH 2.7 with 0.1% aqueous formic acid and acetonitrile (contains 0.1% formic acid) as eluents; linear gradient from 10% acetonitrile to 95% acetonitrile. [b] LC-MS determination in the neutral range is effected at pH 7.8 with 0.001 molar aqueous ammonium hydrogencarbonate solution and acetonitrile as eluents; linear gradient from 10% acetonitrile to 95% acetonitrile. Calibration is effected using unbranched alkan-2-ones (having 3 to 16 carbon atoms) with known log P values (log P values determined on the basis of the retention times by linear interpolation between two successive alkanones).

Series [2] is described as follows: log P by HPLC (OECD Guideline 117), method [a] acidic range pH 2.7. The format is physicochemical. The note with it: for chromatographic logP: reversed-phase (RP) C18 HPLC column. Here is the method:
as §1

A further series relates to Myzus persicae. In words: Myzus persicae spray test. Type of series: in vivo. The note with it: application rate 500 g/ha, Chinese cabbage leaf discs, after 6 days; for pest or weed control at 500 g/ha: Myzus persicae, foliar, 144 h, read-out: efficacy (aphids killed). Here is the method: Myzus persicae—Spray Test Solvent: 78 parts by weight of acetone • • 1.5 parts by weight of dimethylformamide Emulsifier: alkylaryl polyglycol ether To produce a suitable active ingredient formulation, 1 part by weight of active ingredient is dissolved using the specified parts by weight of solvent and made up with water containing an emulsifier concentration of 1000 ppm until the desired concentration is attained. To produce further test concentrations, the formulation is diluted with emulsifier-containing water. Discs of Chinese cabbage leaves (Brassica pekinensis) infested by all stages of the green peach aphid (Myzus persicae) are sprayed with an active ingredient formulation of the desired concentration. After 6 days, the efficacy in % is determined. 100% means that all the aphids have been killed and 0% means that none of the aphids have been killed.

For the compound “5-(Ethylsulphanyl)-4-methyl-2-[2-(pyridin-3-yl)-1,3-benzothiazol-6-yl]-2,4-dihydro-33H-1,2,4-triazol-3-one [compound 52]”, the “logP[b]” value in series [1] is on record as 2.97. The “logP[a]” value in series [2] was found to be 2.84.
For the compound `Ic1ccc2nc(-c3cccnc3)sc2c1` [I-a-2, 6-Iodo-2-(pyridin-3-yl)-1,3-benzothiazole], the chromatographic logP in series [1] was found to be 3.39; in series [2] it was 3.37.
Taken in the same sequence, the figures for `CC1(C)OB(c2ccc3nc(-c4cccnc4)sc3c2)OC1(C)C` [I-h-1, 2-(Pyridin-3-yl)-6-(4,4,5,5-tetramethyl-1,3,2-dioxaborolan-2-yl)-1,3-benzothiazole] were 4.14 and 4.03.
For `c1ccc(-c2ccc3nc(-c4cccnc4)sc3c2)cc1` [compound 1], the “logP[b]” value in series [1] was found to be 3.87. For the same compound, the “logP[a]” value in series [2] is on record as 3.7.
Taken in the same sequence, the figures for `Fc1ccccc1-c1ccc2nc(-c3cccnc3)sc2c1` [compound 5] were 3.78 and 3.7.
Taken in the same sequence, the figures for `Clc1ccccc1-c1ccc2nc(-c3cccnc3)sc2c1` [compound 6] were 4.2 and 4.05.
Turning to `c1cncc(-c2nc3ccc(NCC4CC4)cc3s2)c1` [compound 14], the “logP[b]” value in series [1] amounted to 2.94. Moreover, the “logP[a]” value in series [2] is given as 2.5.
Regarding `c1cncc(-c2nc3ccc(N4CCOCC4)cc3s2)c1` [compound 15, 6-(Morpholin-4-yl)-2-(pyridin-3-yl)-1,3-benzothiazole], the chromatographic logP in series [1] is 2.14; in series [2] it was 2.
`c1ccc(CNc2ccc3nc(-c4cccnc4)sc3c2)cc1` [compound 16]: the “logP[b]” value in series [1] was 3.12. For the same compound, the “logP[a]” value in series [2] is 2.91.
For `CC(Nc1ccc2nc(-c3cccnc3)sc2c1)c1ccccc1` (stereo not shown) [compound 17], the chromatographic logP in series [1] was 3.33; in series [2], 3.23.
The compound `Cc1cc(C)c([S+]([O-])CC(F)(F)F)cc1Nc1ccc2nc(-c3cccnc3)sc2c1` (stereo not shown) [compound 19, N-{2,4-Dimethyl-5-[(2,2,2-trifluoroethyl)sulphinyl]phenyl}-2-(pyridin-3-yl)-1,3-benzothiazol-6-amine] had a chromatographic logP in series [1] of 3.07.
With `Cc1cc(F)c(Nc2ccc3nc(-c4cccnc4)sc3c2)cc1[S+]([O-])CC(F)(F)F` (stereo not shown) [compound 21, N-{2-Fluoro-4-methyl-5-[(2,2,2-trifluoroethyl)sulphinyl]phenyl}-2-(pyridin-3-yl)-1,3-benzothiazol-6-amine], the values for the chromatographic logP in series [1] and in series [2] were 2.9 and 2.85, respectively.
In the case of `CCSc1ccccc1Nc1ccc2nc(-c3cccnc3)sc2c1` [compound 22], the “logP[b]” value in series [1] was 4.44. The “logP[a]” value in series [2] turned out to be 4.32.
Taken in the same sequence, the figures for `CC[S+]([O-])c1ccccc1Nc1ccc2nc(-c3cccnc3)sc2c1` (stereo not shown) [compound 23] were 2.24 and 2.25.
Take `c1ccc(Nc2ccc3nc(-c4cccnc4)sc3c2)nc1` [compound 24, N-(Pyridin-2-yl)-2-(pyridin-3-yl)-1,3-benzothiazol-6-amine]: the chromatographic logP in series [1] was 2.47; in series [2] it was 1.04.
On to `c1cncc(-c2nc3ccc(-n4cccn4)cc3s2)c1` [compound 26], for which the “logP[b]” value in series [1] came to 2.2.
As for `c1cncc(-c2nc3ccc(-n4cncn4)cc3s2)c1` [compound 31, 2-(Pyridin-3-yl)-6-(1H-1,2,4-triazol-1-yl)-1,3-benzothiazole], the chromatographic logP in series [1] turned out to be 1.63.
As to `O=C(NCC(F)(F)F)c1ccc2nc(-c3cccnc3)sc2c1` [compound 32, 2-(Pyridin-3-yl)-N-(2,2,2-trifluoroethyl)-1,3-benzothiazole-6-carboxamide], the pest or weed control at 500 g/ha in the series on Myzus persicae amounted to 100%. In series [2], this compound registered a chromatographic logP of 1.96.
For `O=C(NCc1ccccn1)c1ccc2nc(-c3cccnc3)sc2c1` [compound 33, 2-(Pyridin-3-yl)-N-(pyridin-2-ylmethyl)-1,3-benzothiazole-6-carboxamide], in that order: 100% and 1.15.
For `Cn1ccc(-c2ccc3nc(-c4cccnc4)sc3c2)n1` [compound 36], the “logP[b]” value in series [1] worked out at 2.03. In addition, the “logP[a]” value in series [2] was found to be 2.05.
Take `CSCn1cc(-c2ccc3nc(-c4cccnc4)sc3c2)cn1` [compound 38, 6-{1-[(Methylsulphanyl)methyl]-1H-pyrazol-4-yl}-2-(pyridin-3-yl)-1,3-benzothiazole]: the chromatographic logP in series [1] is 2.54; in series [2], 2.4.
In the case of `Cn1cncc(-c2ccc3nc(-c4cccnc4)sc3c2)c1=O` [compound 43], the “logP[b]” value in series [1] was found to be 1.51. The “logP[a]” value in series [2] came out at 1.34.
Take `COc1nn(-c2ccc3nc(-c4cccnc4)sc3c2)c(=O)n1C` [compound 50]: in the series with Myzus persicae, the “efficacy (aphids killed)” value was 90%.
Take `Cn1c(OCC(F)(F)F)nn(-c2ccc3nc(-c4cccnc4)sc3c2)c1=O` [compound 53]: the “logP[b]” value in series [1] turned out to be 2.88. The “logP[a]” value in series [2] was determined as 2.8.
For `Cn1c(SCC(F)(F)F)nn(-c2ccc3nc(-c4cccnc4)sc3c2)c1=O` [compound 54], in that order: 2.91 and 2.84.
For the compound `CSCc1nn(-c2ccc3nc(-c4cccnc4)sc3c2)c(=O)n1C` [compound 55, 4-Methyl-5-[(methylsulphanyl)methyl]-2-[2-(pyridin-3-yl)-1,3-benzothiazol-6-yl]-2,4-dihydro-3H-1,2,4-triazol-3-one], the figures for the chromatographic logP in series [1] and in series [2] were 2.36 and 2.23, respectively.
With `CNC(=O)c1ccc2nc(-c3cccnc3)sc2c1` [compound 57], the “efficacy (aphids killed)” value with Myzus persicae was found to be 100%. For the same compound, the “logP[a]” value in series [2] was 1.22.
Taken in the same sequence, the figures for `CNC(=O)c1ccc2nc(-c3cncc(F)c3)sc2c1` [compound 58] were 100% and 1.67.
Turning to `CN(C)C(=O)c1ccc2nc(-c3cccnc3)sc2c1` [compound 59], the “efficacy (aphids killed)” value with Myzus persicae was 100%. Also, the “logP[a]” value in series [2] is on record as 1.42.
Taken in the same sequence, the figures for `CN(C)C(=O)c1ccc2nc(-c3cncc(F)c3)sc2c1` [compound 60] were 100% and 1.9.
Taken in the same sequence, the figures for `CCN(C)C(=O)c1ccc2nc(-c3cccnc3)sc2c1` [compound 61] were 100% and 1.71.
In the case of `CCN(C)C(=O)c1ccc2nc(-c3cncc(F)c3)sc2c1` [compound 62], the “efficacy (aphids killed)” value in the series with Myzus persicae came out at 100%. Further, the “logP[a]” value in series [2] came to 2.2.
Turning to `O=C(NCC(F)(F)F)c1ccc2nc(-c3cccnc3)sc2c1` [compound 63], the “logP[a]” value in series [2] worked out at 2.02.
For the compound `O=C(NCC(F)(F)F)c1ccc2nc(-c3cncc(F)c3)sc2c1` [compound 64], the “efficacy (aphids killed)” value in the series on Myzus persicae is listed as 90%. For the same compound, the “logP[a]” value in series [2] is 2.51.
With `CS(=O)(=O)CCNC(=O)c1ccc2nc(-c3cncc(F)c3)sc2c1` [compound 72], the “efficacy (aphids killed)” value with Myzus persicae was 90%.
In the case of `O=C(Nc1cccc(SC(F)(F)F)c1)c1ccc2nc(-c3cccnc3)sc2c1` [compound 73], in series [2], the “logP[a]” value worked out at 3.76.
In series [2], `O=C(Nc1cccc(SC(F)(F)F)c1)c1ccc2nc(-c3cncc(F)c3)sc2c1` [compound 74, 2-(5-Fluoropyridin-3-yl)-N-{3-[(trifluoromethyl)sulphanyl]phenyl}-1,3-benzothiazole-6-carboxamide] gave a chromatographic logP of 4.29.
The same measure, in the same setting: in the case of `O=C(Nc1cccc([S+]([O-])C(F)(F)F)c1)c1ccc2nc(-c3cncc(F)c3)sc2c1` (stereo not shown) [compound 75, 2-(5-Fluoropyridin-3-yl)-N-{3-[(trifluoromethyl)sulphinyl]phenyl}-1,3-benzothiazole-6-carboxamide] it was 3.26.
The same measure, in the same setting: the result for `CCC(=O)N(C)c1ccc2nc(-c3cccnc3)sc2c1` [compound 76, N-Methyl-N-[2-(pyridin-3-yl)-1,3-benzothiazol-6-yl]propanamide] reads 1.84.
Turning to `CN(C(=O)C1CCS(=O)(=O)C1)c1ccc2nc(-c3cncc(F)c3)sc2c1` (stereo not shown) [compound 83], the “logP[a]” value in series [2] amounted to 1.94.
Same read-out and setting: the result for `CN(C(=O)c1cccc(SC(F)(F)F)c1)c1ccc2nc(-c3cccnc3)sc2c1` [compound 84] reads 3.24.
Take `CN(C(=O)c1cccc(SC(F)(F)F)c1)c1ccc2nc(-c3cncc(F)c3)sc2c1` [compound 85, N-[2-(5-Fluoropyridin-3-yl)-1,3-benzothiazol-6-yl]-N-methyl-3-[(trifluoromethyl)sulphanyl]benzamide]: the chromatographic logP in series [2] came to 3.88.
In the case of `O=C(Nc1ccc2nc(-c3cccnc3)sc2c1)c1cccc([S+]([O-])C(F)(F)F)c1` (stereo not shown) [compound 86], the “logP[a]” value in series [2] was determined as 2.63.
In the case of `O=C(Nc1ccc2nc(-c3cncc(F)c3)sc2c1)c1cccc([S+]([O-])C(F)(F)F)c1` (stereo not shown) [compound 87, N-[2-(5-Fluoropyridin-3-yl)-1,3-benzothiazol-6-yl]-3-[(trifluoromethyl)sulphinyl]benzamide], in series [2], the chromatographic logP was determined as 3.27.
